Experimental data published in patent US9157906B2, “Phosphodiesterase activity and regulation of phosphodiesterase 1B-mediated signaling in brain” (THE ROCKEFELLER UNIVERSITY, priority 2001, dated 2015).
Counter-ions that a name gives are not always drawn.

Key:
[1] = test system: D1-mediated phosphorylation; experiment: D1-mediated phosphorylation in nucleus accumbens slices; assay type: cell-based, mouse; details: D1 receptor agonist
Protocol: Male PDE1B−/− (null) and WT mice (8-12 weeks of age) were decapitated. The brain was transferred rapidly to an ice-cold surface, blocked, and fixed to the cutting surface of a Vibratome (Ted Pella, Redding, Calif.) maintained at 4° C. The brain was submersed in cold, oxygenated (95% O2/5% CO2) Krebs' bicarbonate buffer of the following composition (in mM): 125 NaCl, 5KCl, 26 NaHCO3, 1.5 CaCl2, 1.5 MgSO4, and 10 glucose, pH 7.4. Coronal mouse brain sections (400 μm in thickness) were cut and pooled in cold buffer. Striatal or nucleus accumbens slices were cut from the coronal sections under a dissecting microscope. Individual slices were preincubated in fresh buffer for 15 min at 30° C.; the buffer was replaced, and preincubation continued for an additional 30 min. At the end of this second preincubation period the buffer was replaced with Krebs' buffer or buffer containing test substances for 5 min. Slices were frozen immediately in liquid nitrogen and stored at −80° C. until assayed. […]
(§1) Chemiluminescence was detected by autoradiography and bands were quantified by analysis of scanned images using NIH Image 1.52 software. Because the linear range for quantitation of ECL signals by densitometry is limited, several film exposures were obtained for each set of samples to insure that the signals were within a density range that allowed for accurate quantitation. […]

[2] = test system: GluR1 AMPA receptor at Ser845; experiment: Phosphorylation of GluR1 AMPA receptor at Ser845 in striatal slices, immunoblot with phosphorylation state-specific antibodies; assay type: cell-based, mouse; details: striatal slices of PDE1B null mice; 10 μM, 10 minutes
Protocol: (§2) Male PDE1B−/− (null) and WT mice (8-12 weeks of age) were decapitated. The brain was transferred rapidly to an ice-cold surface, blocked, and fixed to the cutting surface of a Vibratome (Ted Pella, Redding, Calif.) maintained at 4° C. The brain was submersed in cold, oxygenated (95% O2/5% CO2) Krebs' bicarbonate buffer of the following composition (in mM): 125 NaCl, 5KCl, 26 NaHCO3, 1.5 CaCl2, 1.5 MgSO4, and 10 glucose, pH 7.4. Coronal mouse brain sections (400 μm in thickness) were cut and pooled in cold buffer. Striatal or nucleus accumbens slices were cut from the coronal sections under a dissecting microscope. Individual slices were preincubated in fresh buffer for 15 min at 30° C.; the buffer was replaced, and preincubation continued for an additional 30 min. […] Slices were frozen immediately in liquid nitrogen and stored at −80° C. until assayed.
Frozen slices were sonicated in homogenization buffer containing 1% SDS. […]
as §1

DARPP-32 at Thr34 = experiment: Phosphorylation of DARPP-32 at Thr34 in striatal slices, immunoblot with phosphorylation state-specific antibodies; assay type: cell-based, mouse; details: for increase in levels of phospho-Thr34 DARPP-32 and phospho-Ser845 GluR1: forskolin (10, unit not given)
Protocol: as §2
Frozen slices were sonicated in homogenization buffer containing 1% SDS. Small aliquots of the homogenate were retained for protein determination by standard assays using bovine serum albumin as the standard. Equal amounts of protein (50 μg) were loaded onto 10% acrylamide gels, separated by SDS/PAGE, and transferred to nitrocellulose membranes by a method described by Tobin et al. (1979. Proc. Natl. Acad. Sci, USA 76:4350-4354). […]
as §1

PDE1B null mice = experiment: Methamphetamine-stimulated horizontal locomotor activity (Digiscan apparatus); details: 1 mg/kg subcutaneous

With `Oc1cc2c(c(Cl)c1O)CCNCC2c1ccccc1` (stereo not drawn) [SKF81297] the “D1-mediated phosphorylation in PDE1B null mice as compared to wild-type mice” value [1] was “enhanced”, the “increase for phospho-Ser845 as compared to controls” value [2] was 13 fold and the “increase for phospho-Thr34 as compared to controls” value (DARPP-32 at Thr34; striatal slices of PDE1B null mice, 10 μM, 10 minutes) was 15 fold.
`C=C[C@@]1(C)CC(=O)[C@]2(O)[C@@]3(C)[C@@H](O)CCC(C)(C)[C@@H]3[C@H](O)[C@H](OC(C)=O)[C@@]2(C)O1` [Forskolin] was tested, and the “increase in levels of phospho-Thr34 DARPP-32 and phospho-Ser845 GluR1” value (DARPP-32 at Thr34; striatal slices from PDE1B null mice) was 65 fold and the “increase in levels of phospho-Thr34 DARPP-32 and phospho-Ser845 GluR1” value (DARPP-32 at Thr34; striatal slices from wild-type mice) was 21 fold.
In the case of `CN[C@@H](C)Cc1ccccc1` [methamphetamine, d-methamphetamine hydrochloride], the “duration of stimulated hyperactivity response after treatment” value (PDE1B null mice) is reported as 90 min.
